Source: patent US20210205264A1, “USE OF DELTA-TOCOTRIENOL FOR TREATING CANCER” (H. LEE MOFFITT CANCER CENTER & RESEARCH INSTITUTE INC., priority 2018, published 2021)

Tests used:
human CCSCs = assay: Orthotopic (cecum) model of luciferase expressing human CCSCs in NOD-SCID mice; assay type: in vivo
Protocol: FIGS. 8A, 8B, 8C, and 8D show growth of cecal tumor volume (FIGS. 8A & 8B) and liver metastasis score (FIGS. 8C & 8D) in orthotopic model of CCSCs after treatment with vehicle, aspirin, d-T3, and aspirin+d-T3.
In vivo model of human CCSC were developed by implanting the stably transfected luciferase expressing CCSCs in the cecum of NOD-SCID mice. In this model, tumor growth, metastasis, and survival are monitored twice weekly by IP injection of luciferin (150 mg/kg body weight) and imaged using the IVIS 200 Bioluminescence imaging system. […] These findings strongly indicate that d-T3 targets CCSCs and enhances the ability of aspirin to target these cells.

CCSCs [1] = assay: Annexin V FITC/PI flow cytometry apoptosis assay in CCSCs; assay type: cell-based, human; conditions: 24 hours; d-T3 50 μM, aspirin 5 mM
Protocol: FIGS. 10A, 10B, 10C, and 10D show induction of apoptosis measured by flow cytometry (FIG. 10A) and confocal microscopy (FIG. 10B) in CCSCs after treatment with vehicle, aspirin, d-T3, and aspirin+d-T3. Effect of BID inhibitor on apoptosis in CCSCs after treatment with aspirin or d-T3 (FIG. 10C). Induction oft-BID in CCSCs after treatment with vehicle, aspirin, d-T3, and aspirin+d-T3 (FIG. 10D).
d-T3 can induce selective killing of CCSCs through the BH3 interacting-domain death agonist (BID). […] It should be noted that these in vitro results are consistent with the in vivo observation of the selective induction of apoptosis in APC mutant colon crypt cells in the ApcMin/+ mice but not in the normal intestinal cells of the AOM rat CRC model or NOD/SCID mice. […] Although the proapoptotic activity of d-T3 is a consistent observation of d-T3 anticancer activity in all of the published reports, the mechanism by which d-T3 induces apoptosis is poorly understood. Apoptotic death is regulated by the death receptor (extrinsic) and mitochondrial (intrinsic) pathways. These 2 pathways crosstalk under certain conditions through caspase-8-mediated cleavage of BID, a BH3-only Bcl-2 family member. The activated and truncated BID (tBID) then engages the intrinsic pathway for efficient apoptosis induction. To obtain preliminary information regarding the mechanisms by which d-T3 induces apoptosis in CCSCs, the activation of BID was measured after 24-hour treatment with vehicle, aspirin (5 mM), d-T3 (50 μM), and aspirin combined with d-T3 in CCSCs by Western blotting.

[2] = system: colon cancer stem cells (CCSC); assay: d-T3 IC50 in colon cancer stem cells; assay type: cell-based, human; conditions: 5 days treatment, daily fresh media change
HPNE cells = assay: Anchorage-independent growth / colony formation of HPNE cells over-expressing hCAS; assay type: cell-based; conditions: d-T3 concentration escalation
SW-620 = assay: Apoptosis induction in SW-620; assay type: cell-based, human
hCAS = biological target: T1, hCAS (Homo sapiens, UniProt P55060); assay: Streptavidin bead capture of hCAS from treated MiaPaCa-2 cells; assay type: binding; conditions: derived from biotinylated probes
T1 construct: endogenous in cells; host or cells: MiaPaCa-2 human pancreatic cancer cells
T1 sequence (P55060 1-971): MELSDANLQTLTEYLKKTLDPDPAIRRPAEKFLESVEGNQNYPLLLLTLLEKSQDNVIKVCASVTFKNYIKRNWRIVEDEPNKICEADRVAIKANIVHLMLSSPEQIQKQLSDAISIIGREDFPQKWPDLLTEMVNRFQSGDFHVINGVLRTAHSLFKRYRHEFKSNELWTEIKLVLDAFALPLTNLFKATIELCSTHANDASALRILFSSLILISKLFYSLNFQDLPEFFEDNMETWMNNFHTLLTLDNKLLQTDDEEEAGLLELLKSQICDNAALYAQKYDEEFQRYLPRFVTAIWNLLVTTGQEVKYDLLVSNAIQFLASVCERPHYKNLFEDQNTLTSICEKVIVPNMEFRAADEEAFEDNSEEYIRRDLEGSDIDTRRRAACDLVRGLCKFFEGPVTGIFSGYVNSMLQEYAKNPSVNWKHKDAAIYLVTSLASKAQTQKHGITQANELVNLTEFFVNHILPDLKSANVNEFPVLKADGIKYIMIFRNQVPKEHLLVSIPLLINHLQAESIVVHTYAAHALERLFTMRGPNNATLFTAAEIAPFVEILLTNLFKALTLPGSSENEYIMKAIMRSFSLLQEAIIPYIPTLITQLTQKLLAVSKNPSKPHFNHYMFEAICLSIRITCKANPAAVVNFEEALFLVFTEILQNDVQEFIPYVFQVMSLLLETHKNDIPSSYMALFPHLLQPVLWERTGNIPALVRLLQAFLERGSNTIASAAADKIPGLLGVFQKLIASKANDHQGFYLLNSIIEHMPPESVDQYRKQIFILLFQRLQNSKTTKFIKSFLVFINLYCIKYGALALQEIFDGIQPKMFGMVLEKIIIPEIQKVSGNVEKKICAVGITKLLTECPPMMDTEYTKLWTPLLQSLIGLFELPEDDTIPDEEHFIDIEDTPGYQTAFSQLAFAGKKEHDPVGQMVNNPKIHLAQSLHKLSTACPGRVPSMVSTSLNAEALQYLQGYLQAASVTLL
Protocol: To confirm that δ-T3 binds to hCAS in intact cells, biotinylated δ-T3 (B-δ-T3) was prepared by chemically coupling the —OH group of δ-T3 to the —COOH of biotin using a PEG-iodoactamide linker (FIG. 18).
MiaPaCa-2 human pancreatic cancer cells were treated for 24 hours with biotin alone (B), B-δ-T3 or B-TOCOPH. The cells were then lysed, and the lysates incubated with streptavidin beads, and the captured proteins processed for Western blotting.

CCSCs [3] = assay: miRNA profiles in CCSCs; assay type: cell-based, human; conditions: 24-hour treatment; aspirin 5 mM, d-T3 10 μM
Excerpt: Given the results, and without intending to be bound by any theory, it appears that the induction of apoptosis can be one mechanism by which d-T3 prevents CRC and augments CRC prevention activity. BID knockout can diminish this effect. The biorepository as well as materials generated from studies can be used to explore other mechanisms of d-T3 action such as anti-inflammatory, mediation of the immune system, anti-angiogenesis, and alterations in metabolism. To this end, miRNA profiles were conducted that are altered with d-T3, aspirin, and d-T3 with aspirin treatment in CCSCs. To discover early miRNAs that are likely to influence activity, these cells were deliberately treated with doses of these agents at a duration when there were no phenotypic changes of apoptosis.

CC(C)=CCC/C(C)=C/CC/C(C)=C/CC[C@]1(C)CCc2cc(O)cc(C)c2O1 [d-T3, δ-tocotrienol]
growth of human CRC stem cells (cecal tumor) (human CCSCs): inhibited
metastases of human CRC stem cells (human CCSCs; liver metastasis): inhibited
induction of apoptosis (CCSCs [1]): much more effective than aspirin
IC50 [2]: 5 µM
dose response on growth / colony formation (HPNE cells): potent dose-dependent effect
dose response on growth / colony formation (HPNE cells; listed as δ-T3): robust dose-response
apoptosis (SW-620): significantly induced apoptosis
binds hCAS in intact pancreatic cancer cells (hCAS): binds hCAS
down-regulation of miRNAs compared with vehicle (number) (CCSCs [3]): 9 miRNAs
up-regulation of miRNAs compared with vehicle (number) (CCSCs [3]): 7 miRNAs
